The record followed here is article doi:10.1101/2020.05.01.070730v2 (biorxiv, 2021).

The assay addresses MutS (Pseudomonas aeruginosa, UniProt Q9HY08). The assay is described as follows: biochemical.

MutS, sequence (Q9HY08 whole entry): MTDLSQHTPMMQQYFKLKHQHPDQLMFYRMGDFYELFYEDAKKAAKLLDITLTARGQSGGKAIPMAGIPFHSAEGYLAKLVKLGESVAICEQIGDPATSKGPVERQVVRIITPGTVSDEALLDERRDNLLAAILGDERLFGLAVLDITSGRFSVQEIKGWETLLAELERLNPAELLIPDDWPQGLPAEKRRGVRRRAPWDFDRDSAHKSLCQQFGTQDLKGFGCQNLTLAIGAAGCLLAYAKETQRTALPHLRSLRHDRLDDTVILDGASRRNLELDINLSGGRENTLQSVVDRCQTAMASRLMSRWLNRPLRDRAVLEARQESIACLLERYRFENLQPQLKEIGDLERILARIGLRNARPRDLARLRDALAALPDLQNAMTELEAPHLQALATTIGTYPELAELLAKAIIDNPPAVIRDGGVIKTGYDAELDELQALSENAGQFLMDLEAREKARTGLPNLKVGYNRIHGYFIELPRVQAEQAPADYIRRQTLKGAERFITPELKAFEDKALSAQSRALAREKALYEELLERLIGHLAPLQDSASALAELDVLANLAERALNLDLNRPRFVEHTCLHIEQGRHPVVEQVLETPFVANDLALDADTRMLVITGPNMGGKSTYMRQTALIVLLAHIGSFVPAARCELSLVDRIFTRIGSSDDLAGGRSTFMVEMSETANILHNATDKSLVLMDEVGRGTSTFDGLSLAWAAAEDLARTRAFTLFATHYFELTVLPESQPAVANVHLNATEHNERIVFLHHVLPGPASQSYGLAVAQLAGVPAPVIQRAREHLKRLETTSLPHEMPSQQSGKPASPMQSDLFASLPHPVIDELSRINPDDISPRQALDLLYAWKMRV

In general, EC50 refers to the concentration needed to bring the measured effect to its halfway point. Consider `Nc1ncnc2c1ncn2[C@@H]1O[C@H](COP(=O)(O)OP(=O)(O)OP(=O)(O)O)[C@@H](O)[C@H]1O` [ATP], for which it took 618 ± 49 µM to reach a half-maximal effect (EC50).
